The source of these data is US6444685B1, “N-(4-sulfonylaryl)Cyclylamine 2-hydroxyethylamines as beta-3 adrenergic receptor agonists” (Wyeth, priority 2000, dated 2002).

Common to all, as to assay type: cell-based
The target of assay [1] is T1, human β2-adrenergic receptor (Homo sapiens, UniProt P07550).
T1 construct: expressed in transfected cells; host or cells: CHO cells
The experiment in a line: cAMP accumulation (SPA) in CHO cells transfected with human β2 adrenergic receptor. The settings on record: for EC50: CHO cells transfected with human β2-AR, cAMP, 15 min incubation, 10^−8 to 10^−4 M, read-out: beta-2 EC50; for beta-2 (IA) maximal response relative to isoproterenol: IA = % activity compound / % activity isoproterenol at 10^−5 M, CHO human β2 cells. On the procedure:
(§1) The ability of compounds of this invention to treat or inhibit disorders related to insulin resistance or hyperglycemia was established with representative compounds of this invention in the following standard pharmacological test procedures, which measured the binding selectivity to the β1, β2, and β3 adrenergic receptors. Binding to the receptors was measured in Chinese Hamster ovary (CHO) cells that were transfected with adrenergic receptors. The following briefly summarizes the procedures used and results obtained.
(§2) Transfection of CHO cells with β1 and β2 adrenergic receptors: CHO cells were transfected with human β1- or β2-adrenergic receptors as described in Tate, K. M., Eur. J. Biochem., 196:357-361 (1991).
(§3) Binding Procedure: Clones expressing receptor levels of 70 to 110 fmoles/mg protein were used in the test procedures. CHO cells were grown in 24-well tissue culture plates in Dulbecco's Modified Eagle Media with 10% fetal bovine serum, MEM non-essential amino acids, Penicillin-Streptompycin and Geneticin. On the day of test procedure, growth medium was replaced with preincubation media (Dulbecco's Modified Eagle Media and incubated for 30 minutes at 37° C. Preincubation medium was replaced with 0.2 ml treatment medium containing DMEM media containing 250 μM IBMX (isobutyl-1-methylxantine) plus 1 mM ascorbic acid with test compound dissolved in DMSO. Test compounds were tested over a concentration range of 10^−9 M to 10^−5 M for β3 cells and 10^−8 to 10^−4 M for β1 and β2 transfected cells. Isoproterenol (10^−5 M) was used as an internal standard for comparison of activity. Cells were incubated at 37° C. on a rocker for 30 min with the β3 cells and 15 min for β1 and β2 cells. Incubation was stopped with the addition of 0.2N HCl and neutralized with 2.5N NaOH. The plates, containing the cells and neutralized media, were stored at −20 degrees celsius until ready to test for cAMP using the SPA test kit (Amersham).
(§4) Data Analysis and Results: Data collected from the SPA test procedure were analyzed as per cent of the maximal isoproterenol response at 10^−5 M. Activity curves were plotted using the SAS statistical and graphics software. EC50 values were generated for each compound and the maximal response (IA) developed for each compound is compared to the maximal response of isoproternol at 10^−5 M from the following formula:
(§5) IA=% activity compound/% activity isoproterenol
Background: Cyclic AMP is a second messenger, typically raised through Gs and lowered through Gi signalling.

Assay [2] concerns the target T2, human β1-adrenergic receptor (Homo sapiens, UniProt P08588).
T2 construct: expressed in transfected cells; host or cells: CHO cells
The experiment in a line: cAMP accumulation (SPA) in CHO cells transfected with human β1 adrenergic receptor. The settings on record: for EC50: CHO cells transfected with human β1-AR, cAMP, 15 min incubation, 10^−8 to 10^−4 M, read-out: beta-1 EC50; for beta-1 (IA) maximal response relative to isoproterenol: IA = % activity compound / % activity isoproterenol at 10^−5 M, CHO human β1 cells. On the procedure: as §1, §2, §3, §4, §5

Assay [3] has as its target T3, human β3 adrenergic receptor (Homo sapiens, UniProt P13945).
T3 construct: Full length β3 AR clones (402 amino acids) containing the last 6 amino acids of hβ3— AR are prepared; expressed in transfected cells; host or cells: CHO cells
The experiment in a line: cAMP accumulation (SPA) in CHO cells transfected with human β3 adrenergic receptor. The settings on record: for EC50: CHO cells expressing human β3-AR, cAMP, 30 min incubation, 10^−9 M to 10^−5 M, read-out: beta-3 EC50; for beta-3 (IA) maximal response relative to isoproterenol: IA = % activity compound / % activity isoproterenol at 10^−5 M, CHO human β3 cells. On the procedure:
as §1
Cloning of Human β3-AR Genomic DNA: cDNA was constructed by ligating four polymerase chain reaction (PCR) products using the following primers: an ATG-Narl fragment, sense primer 5′-[…]3′ and anti-sense primer 5′[…]3′; a Narl-Accl fragment, 5′[…]3′ as sense and 5′[…]3′ as anti-sense primer; an Accli-Styl fragment, sense primer 5′[…]3′ and anti-sense primer 5′[…]3′ and a Styl-TAG fragment, with sense primer 5′[…]3′ and anti-sense primer 5′[…]3′. The corresponding primer sequences are described in Mantzoros, C. S., et.al., Diabetes 45: 909-914 (1996). The four fragments are ligated into a pUC 18 plasmid (Gibco-BRL) and sequenced. Full length β3 AR clones (402 amino acids) containing the last 6 amino acids of hβ3— AR are prepared with the β3-βARpcDNA3from ATTC.
as §3, §4, §5

T2 sequence (P08588 whole entry): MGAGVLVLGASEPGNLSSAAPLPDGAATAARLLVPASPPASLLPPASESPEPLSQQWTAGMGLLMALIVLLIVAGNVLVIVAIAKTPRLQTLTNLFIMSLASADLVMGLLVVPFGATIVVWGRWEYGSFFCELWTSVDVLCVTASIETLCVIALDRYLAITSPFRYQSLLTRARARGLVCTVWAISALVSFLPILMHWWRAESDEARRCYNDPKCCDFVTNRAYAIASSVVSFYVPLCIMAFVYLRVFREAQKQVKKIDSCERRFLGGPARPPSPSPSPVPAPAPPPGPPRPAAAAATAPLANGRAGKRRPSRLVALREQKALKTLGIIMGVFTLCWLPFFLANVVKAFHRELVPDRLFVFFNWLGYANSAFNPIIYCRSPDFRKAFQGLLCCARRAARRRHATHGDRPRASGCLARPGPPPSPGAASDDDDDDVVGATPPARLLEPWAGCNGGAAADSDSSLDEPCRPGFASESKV
T3 sequence (P13945 whole entry): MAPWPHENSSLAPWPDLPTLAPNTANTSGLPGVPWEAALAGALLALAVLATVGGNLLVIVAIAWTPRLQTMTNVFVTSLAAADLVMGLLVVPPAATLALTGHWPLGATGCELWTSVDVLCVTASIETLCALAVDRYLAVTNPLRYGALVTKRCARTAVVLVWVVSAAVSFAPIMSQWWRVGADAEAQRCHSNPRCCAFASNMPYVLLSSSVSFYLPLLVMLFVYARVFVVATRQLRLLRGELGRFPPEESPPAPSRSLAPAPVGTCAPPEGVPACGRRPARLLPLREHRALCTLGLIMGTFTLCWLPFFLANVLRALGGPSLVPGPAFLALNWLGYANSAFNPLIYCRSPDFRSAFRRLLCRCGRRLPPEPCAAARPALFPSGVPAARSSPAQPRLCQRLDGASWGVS
T1 sequence (P07550 whole entry): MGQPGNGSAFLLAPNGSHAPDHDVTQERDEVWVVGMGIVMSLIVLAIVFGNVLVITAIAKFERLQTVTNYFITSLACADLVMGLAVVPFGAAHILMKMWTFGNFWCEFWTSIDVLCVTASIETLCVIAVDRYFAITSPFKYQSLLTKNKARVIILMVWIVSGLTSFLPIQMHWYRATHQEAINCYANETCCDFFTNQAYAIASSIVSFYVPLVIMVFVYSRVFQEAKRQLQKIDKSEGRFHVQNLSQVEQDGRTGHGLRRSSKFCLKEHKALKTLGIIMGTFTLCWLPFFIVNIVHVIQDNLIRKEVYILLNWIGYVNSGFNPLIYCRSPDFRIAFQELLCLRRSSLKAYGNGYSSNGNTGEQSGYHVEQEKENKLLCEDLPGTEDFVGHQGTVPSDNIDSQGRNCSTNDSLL

`CCOC(=O)[C@H](CC(C)C)NS(=O)(=O)c1ccc(N2CCC(NC[C@H](O)c3ccc(O)c(NS(C)(=O)=O)c3)CC2)cc1` [Example 37, Ethyl (2S)-2-{[(4-{4-[((2R)-2-Hydroxy-2-{4-hydroxy-3-[(methylsulfonyl)amino]-phenyl}ethyl)amino]-1-piperidinyl}phenyl)sulfonyl]amino}-4-methylpentanoate]: in assay [1], the EC50 amounted to 900 nM and the “beta-2 (IA) maximal response relative to isoproterenol” value is given as “(0.42)”. In addition, in assay [2], the concentration giving a half-maximal response (EC50) came out at 5600 nM and the “beta-1 (IA) maximal response relative to isoproterenol” value is given as “(0.43)”. In assay [3], the concentration for a half-maximal effect (EC50) stood at 16 nM and the “beta-3 (IA) maximal response relative to isoproterenol” value is given as “(0.89)”.

On to `CCOC(=O)[C@@H](NS(=O)(=O)c1ccc(N2CCC(NC[C@H](O)c3ccc(O)c(NS(C)(=O)=O)c3)CC2)cc1)C(C)C` [Example 38, Ethyl (2S)-2-{[(4-{4-[((2R)-2-hydroxy-2-{4-hydroxy-3-[(methylsulfonyl)amino]-phenyl}ethyl)amino]-1-piperidinyl}phenyl)sulfonyl]amino}-3-methylbutanoate], for which, in assay [1], the EC50 stood at 380 nM and the “beta-2 (IA) maximal response relative to isoproterenol” value is “(0.32)”. Further, in assay [2], the half-maximal effective concentration (EC50) is 1100 nM and the “beta-1 (IA) maximal response relative to isoproterenol” value was “(0.5)”. In addition, in assay [3], the EC50 is 32 nM and the “beta-3 (IA) maximal response relative to isoproterenol” value is “(1.1)”.

For the compound `CS(=O)(=O)Nc1cc([C@@H](O)CNC2CCN(c3ccc(S(=O)(=O)N4CCC[C@H]4C(=O)O)cc3)CC2)ccc1O` [Example 39, (2S)-1-[(4-{4-[((2R)-2-Hydroxy-2-{4-hydroxy-3-[(methylsulfonyl)amino]-phenyl}ethyl)amino]-1-piperidinyl}phenyl)sulfonyl]-2-pyrrolidinecarboxylic Acid], the “beta-2 (IA) maximal response relative to isoproterenol” value in assay [1] is given as “(0.23)”. Also, in assay [2], the EC50 was 10000 nM and the “beta-1 (IA) maximal response relative to isoproterenol” value was “(0.42)”. Further, in assay [3], the EC50 came out at 30 nM and the “beta-3 (IA) maximal response relative to isoproterenol” value was “(1)”.

Take `CS(=O)(=O)Nc1cc([C@@H](O)CNC2CCN(c3ccc(S(=O)(=O)N4CCCC4)cc3)CC2)ccc1O` [Example 41, N-{2-Hydroxy-5-[(1R)-1-hydroxy-2-({1-[4-(1-pyrrolidinylsulfonyl)phenyl]-piperidinyl}-4-amino)ethyl]phenyl}methanesulfonamide]: in assay [1], the EC50 is 2000 nM and the “beta-2 (IA) maximal response relative to isoproterenol” value was “(0.24)”. In addition, in assay [2], the EC50 was 800 nM and the “beta-1 (IA) maximal response relative to isoproterenol” value was “(0.58)”. Moreover, in assay [3], the EC50 stood at 2 nM and the “beta-3 (IA) maximal response relative to isoproterenol” value is recorded as “(1)”.

Turning to `CS(=O)(=O)Nc1cc([C@@H](O)CNC2CCN(c3ccc(S(=O)(=O)N4CCCCC4)cc3)CC2)ccc1O` [Example 42, N-{2-Hydroxy-5-[(1R)-1-hydroxy-2-({1-[4-(1-piperidinylsulfonyl)phenyl]-piperidinyl}-4-amino)ethyl]phenyl}methanesulfonamide], in assay [1], the half-maximal effective concentration (EC50) was 370 nM and the “beta-2 (IA) maximal response relative to isoproterenol” value is “(0.35)”. In assay [2], the EC50 came to 1320 nM and the “beta-1 (IA) maximal response relative to isoproterenol” value is recorded as “(0.69)”. Moreover, in assay [3], the EC50 worked out at 1 nM and the “beta-3 (IA) maximal response relative to isoproterenol” value is listed as “(1)”.

As to `CCOC(=O)CN(C(C)C)S(=O)(=O)c1ccc(N2CCC(NC[C@H](O)c3ccc(O)c(NS(C)(=O)=O)c3)CC2)cc1` [Example 44], in assay [1], the EC50 worked out at 2000 nM and the “beta-2 (IA) maximal response relative to isoproterenol” value is “(0.43)”. For the same compound, in assay [2], the EC50 worked out at 12000 nM and the “beta-1 (IA) maximal response relative to isoproterenol” value is given as “(0.71)”. Further, in assay [3], the concentration for a half-maximal effect (EC50) was determined as 3 nM and the “beta-3 (IA) maximal response relative to isoproterenol” value is given as “(0.95)”.

As for `CS(=O)(=O)Nc1cc([C@@H](O)CNC2CCN(c3ccc(S(=O)(=O)NCC(=O)O)cc3)CC2)ccc1O` [Example 53, 2-{[(4-{4-[((2R)-2-hydroxy-2-{4-hydroxy-3-[(methylsulfonyl)amino]phenyl}ethyl)amino]-1-piperidinyl}phenyl)sulfonyl]amino}acetic Acid], the “beta-2 (IA) maximal response relative to isoproterenol” value in assay [1] is reported as “(0.23)”. Besides, the “beta-1 (IA) maximal response relative to isoproterenol” value in assay [2] was “(0.24)”. Moreover, in assay [3], the EC50 was 34 nM and the “beta-3 (IA) maximal response relative to isoproterenol” value is “(1.2)”.

`COC(=O)CNS(=O)(=O)c1ccc(N2CCC(NC[C@H](O)c3ccc(O)c(NS(C)(=O)=O)c3)CC2)cc1` [Example 57, Methyl 2-{[(4-{4-[((2R)-2-Hydroxy-2-{4-hydroxy-3-[(methylsulfonyl)amino]-phenyl}ethyl)amino]-1-piperidinyl}phenyl)sulfonyl]amino}acetate]: the “beta-2 (IA) maximal response relative to isoproterenol” value in assay [1] is recorded as “(0.18)”. Further, the “beta-1 (IA) maximal response relative to isoproterenol” value in assay [2] is listed as “(0.18)”. In addition, in assay [3], the EC50 is 6 nM and the “beta-3 (IA) maximal response relative to isoproterenol” value is reported as “(0.85)”.

As for `COC(=O)N(CC(=O)O)S(=O)(=O)c1ccc(N2CCC(NC[C@H](O)c3ccc(O)c(NS(C)(=O)=O)c3)CC2)cc1` [Example 60, [[(4-{4-[((2R)-2-Hydroxy-2-{4-hydroxy-3-[(methylsulfonyl)amino]phenyl}-ethyl)amino]piperidin-1-yl}phenyl)sulfonyl](methoxycarbonyl)amino]acetic Acid], in assay [1], the EC50 is 10000 nM and the “beta-2 (IA) maximal response relative to isoproterenol” value is “(0.21)”. Moreover, in assay [2], the EC50 was determined as 10000 nM and the “beta-1 (IA) maximal response relative to isoproterenol” value is reported as “(0.18)”. In assay [3], the EC50 was found to be 21 nM and the “beta-3 (IA) maximal response relative to isoproterenol” value is reported as “(1.1)”.

As for `CS(=O)(=O)Nc1cc([C@@H](O)CNC2CCN(c3ccc(S(=O)(=O)N(CC(=O)O)Cc4cc(F)ccc4F)cc3)CC2)ccc1O` [Example 63, 2-{(2,5-Difluorobenzyl)[(4-{4-[((2R)-2-hydroxy-2-{4-hydroxy-3-[(methylsulfonyl)-amino]phenyl}ethyl)amino]-1-piperidinyl}phenyl)sulfonyl]amino}acetic acid], the “beta-2 (IA) maximal response relative to isoproterenol” value in assay [1] is reported as “(0.15)”. In assay [2], the concentration for a half-maximal effect (EC50) worked out at 10000 nM and the “beta-1 (IA) maximal response relative to isoproterenol” value is listed as “(0.88)”. In assay [3], the EC50 is 5 nM and the “beta-3 (IA) maximal response relative to isoproterenol” value is listed as “(0.91)”.

Regarding `CS(=O)(=O)Nc1cc([C@@H](O)CNC2CCN(c3ccc(S(=O)(=O)N4CCN(CC(=O)O)CC4)cc3)CC2)ccc1O` [Example 65], in assay [1], the half-maximal effective concentration (EC50) is 16000 nM and the “beta-2 (IA) maximal response relative to isoproterenol” value is “(0.67)”. In addition, the “beta-1 (IA) maximal response relative to isoproterenol” value in assay [2] is listed as “(0.23)”. Also, in assay [3], the EC50 came to 160 nM and the “beta-3 (IA) maximal response relative to isoproterenol” value is “(0.93)”.

For `CC(C)(C)OC(=O)CN(Cc1cc(F)ccc1F)S(=O)(=O)c1ccc(N2CCC(NC[C@H](O)c3ccc(O)c(NS(C)(=O)=O)c3)CC2)cc1` [Example 67, tert-Butyl {(2,5-difuorobenzyl)[(4-{4-[((2R)-2-hydroxy-2-{4-hydroxy-3-[(methylsulfonyl)amino]phenyl}ethyl)amino]piperidin-1-yl}phenyl)sulfonyl]-amino}acetate], the “beta-2 (IA) maximal response relative to isoproterenol” value in assay [1] is given as “(0.17)”. In assay [2], the EC50 came out at 1000 nM and the “beta-1 (IA) maximal response relative to isoproterenol” value is reported as “(0.48)”. In assay [3], the EC50 is 5 nM and the “beta-3 (IA) maximal response relative to isoproterenol” value is “(0.96)”.

For orientation: EC50 means the concentration at which the effect is half-maximal.
